Results taken from patent EP2030621A1, “Novel substituted pyrimidines as cysteine protease inhibitors” (GLAXO GROUP LIMITED, priority 2007, dated 2009).
Where a name gives a salt, the structure may show the parent alone.

test system: Plasmodium falciparum parasite; test: Whole cell assay: whole cell activity against the parasite; format: cell-based; details: not given
Source text: Compounds can be evaluated for whole cell actvity against the Plasmadium falciparum parasite according to the procedure described in Sijwali S. and Rosenthal P. J., (2004) Proceedings of the National Academy of Sciences of the United States of America (PNAS) 101(13), 4384-4389 (see in particular "Measurement of Parasite Growth rates and Inhibitor Sensitivity" on page 4385); IC50 values can be calculated as described in Singh A. and Rosenthal P. J., (2001) Antimicrobial Agents and Chemotherapy 45(3), 949-951 (see in particular page 950, first column); synchronised parasites can be prepared as described in Divo A. A. et al., (1985) Protozool. 32, 59-64. 3) In vitro models to evaluate activity against bone metastasis

| Compound | IC50 |
| --- | --- |
| CN1CCC(CN2CCN(Cc3ccc(C(=O)NN(c4nc(C#N)ncc4Br)C4CCCC4)cc3)CC2)CC1 [Example 7, N'-(5-bromo-2-cyano-4-pyrimidinyl)-N'-cyclopentyl-4-({4-[(1-methyl-4-piperidinyl)methyl]-1-piperazinyl}methyl)benzohydrazide trifluoroacetate] | 1 to 2.5 nM |

same assay, conditions: Plasmodium falciparum

| Compound | IC50 |
| --- | --- |
| CC1CCC(N(NC(=O)c2ccc(CN3CCN(C)CC3)cc2)c2nc(C#N)ncc2Br)C1 (mixture of isomers) [Example 26, N'-(5-bromo-2-cyano-4-pyrimidinyl)-N'-(3-methylcyclopentyl)-4-[(4-methyl-1-piperazinyl)methyl]benzohydrazide trifluoroacetate] | 15 to 150 nM |
| C[C@H]1CCC[C@H]1N(NC(=O)c1ccc(CN2CCN(C)CC2)cc1)c1nc(C#N)ncc1Br (racemic) [Example 2, N'-(5-bromo-2-cyano-4-pyrimidinyl)-N'-[(1R,2S+1S,2R)-2-methylcyclopentyl]-4-[(4-methyl-1-piperazinyl)methyl]benzohydrazide trifluoroacetate] | 15 to 150 nM |
| C[C@@H]1CCC[C@H]1N(NC(=O)c1ccc(CN2CCN(C)CC2)cc1)c1nc(C#N)ncc1Br (racemic) [Example 3, N'-(5-bromo-2-cyano-4-pyrimidinyl)-N'-[(1R,2R+1S,2S)-2-methylcyclopentyl]-4-[(4-methyl-1-piperazinyl)methyl]benzohydrazide trifluoroacetate] | 2.5 to 15 nM |
| C[C@@H]1CCC[C@H]1N(NC(=O)c1ccc(F)cc1)c1nc(C#N)ncc1Br (racemic) [Example 43, N'-(5-bromo-2-cyano-4-pyrimidinyl)-4-fluoro-N'-[(1R,2R+1S,2S))-2-methylcyclopentyl]benzohydrazide trifluoroacetate] | 15 to 150 nM |
| N#Cc1ncc(Br)c(N(NC(=O)c2ccc(CN3CCC(N4CCOCC4)CC3)cc2)C2CCCC2)n1 [Example 6, N'-(5-bromo-2-cyano-4-pyrimidinyl)-N'-cyclopentyl-4-{[4-(4-morpholinyl)-1-piperidinyl]methyl}benzohydrazide trifluoroacetate] | 15 to 150 nM |
| CN1CCN(C2CCN(Cc3ccc(C(=O)NN(c4nc(C#N)ncc4Br)C4CCCC4)cc3)CC2)CC1 [Example 10, N'-(5-bromo-2-cyano-4-pyrimidinyl)-N'-cyclopentyl-4-{[4-(4-methyl-1-piperazinyl)-piperidinyl]methyl}benzohydrazide trifluoroacetate] | 2.5 to 15 nM |

More lines, now with the values ahead:

| IC50 | Compound |
| --- | --- |
| 2.5 to 15 nM | CC1CCC(N(NC(=O)c2ccc(CN3CCN(CC4CCN(C)CC4)CC3)cc2)c2nc(C#N)ncc2Br)C1 (mixture of isomers) [Example 5, N'-(5-bromo-2-cyano-4-pyrimidinyl)-N'-(3-methylcyclopentyl)-4-({4-[(1-methyl-4-piperidinyl)methyl]-1-piperazinyl}methyl)benzohydrazide trifluoroacetate] |
| < 1 nM | CC1CCC(N(NC(=O)c2ccc(CN3CCC(N4CCN(C)CC4)CC3)cc2)c2nc(C#N)ncc2Br)C1 (centres unmarked) [Example 4, N'-(5-bromo-2-cyano-4-pyrimidinyl)-N'-(3-methylcyclopentyl)-4-{[4-(4-methyl-1-piperazinyl)-1-piperidinyl]methyl}benzohydrazide trifluoroacetate] |
| 2.5 to 15 nM | CN1CCCC(CN2CCN(Cc3ccc(C(=O)NN(c4nc(C#N)ncc4Br)C4CCCC4)cc3)CC2)C1 (centres unmarked) [Example 8, N'-(5-bromo-2-cyano-4-pyrimidinyl)-N'-cyclopentyl-4-({4-[(1-methyl-3-piperidinyl)methyl]-1-piperazinyl}methyl)benzohydrazide trifluoroacetate] |
| 2.5 to 15 nM | CN1CCN(C(=O)C2CCN(Cc3ccc(C(=O)NN(c4nc(C#N)ncc4Br)C4CCCC4)cc3)CC2)CC1 [Example 9, N'-(5-bromo-2-cyano-4-pyrimidinyl)-N'-cyclopentyl-4-({4-[(4-methyl-1-piperazinyl)carbonyl]-1-piperidinyl}methyl)benzohydrazide trifluoroacetate] |
